From patent US20090005361A1, “Combination of Organic Compounds” (priority 2006, published 2009)

Columns and labels:
Type in all cases: biochemical
dog renin = target: T1, dog renin (Canis lupus familiaris, UniProt Q6DYE7); assay: renin inhibition, species specificity (dog renin); conditions: stated in words, compared with human renin
T1 sequence (Q6DYE7 66-403): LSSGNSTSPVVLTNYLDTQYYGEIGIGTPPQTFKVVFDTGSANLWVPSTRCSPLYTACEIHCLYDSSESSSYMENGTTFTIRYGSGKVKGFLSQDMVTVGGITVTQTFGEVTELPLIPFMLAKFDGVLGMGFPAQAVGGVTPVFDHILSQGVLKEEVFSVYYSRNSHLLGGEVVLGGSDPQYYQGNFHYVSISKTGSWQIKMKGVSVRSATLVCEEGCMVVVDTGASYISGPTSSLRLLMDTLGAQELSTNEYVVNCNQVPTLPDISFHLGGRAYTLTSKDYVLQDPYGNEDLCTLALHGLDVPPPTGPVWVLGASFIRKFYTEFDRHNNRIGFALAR

mouse renin = assay: renin inhibition, species specificity (mouse renin); conditions: stated in words, compared with human renin
rat renin = target: T2, rat renin (Rattus norvegicus, UniProt P08424); assay: renin inhibition, species specificity (rat renin); conditions: relative potency loss against rat renin
T2 sequence (P08424 65-402): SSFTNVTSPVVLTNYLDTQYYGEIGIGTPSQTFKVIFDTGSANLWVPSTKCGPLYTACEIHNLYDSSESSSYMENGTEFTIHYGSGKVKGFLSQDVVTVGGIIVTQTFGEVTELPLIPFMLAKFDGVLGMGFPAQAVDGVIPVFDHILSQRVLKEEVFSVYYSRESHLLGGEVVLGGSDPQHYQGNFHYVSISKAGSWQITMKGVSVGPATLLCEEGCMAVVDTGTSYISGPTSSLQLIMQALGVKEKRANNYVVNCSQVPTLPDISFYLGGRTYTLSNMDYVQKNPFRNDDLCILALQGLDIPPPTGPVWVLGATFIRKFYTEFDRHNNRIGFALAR

In the case of `COCCCOc1cc(C[C@@H](C[C@H](N)[C@@H](O)C[C@H](C(=O)NCC(C)(C)C(N)=O)C(C)C)C(C)C)ccc1OC` [aliskiren, 2(S),4(S),5(S),7(S)-N-(3-amino-2,2-dimethyl-3-oxopropyl)-2,7-di(1-methylethyl)-4-hydroxy-5-amino-8-[4-methoxy-3-(3-methoxy-propoxy)phenyl]-octanamide], the “potency against dog renin” value (dog renin) is reported as “reasonable potency”, the “potency against mouse renin” value (mouse renin) is reported as “reasonable potency” and the “weaker as a rat renin inhibitor” value (rat renin) is reported as 1-2 orders of magnitude.
